{"source": "patent US20230310542A1", "about": "“EPIGENETIC MODIFIERS TO TREAT RETINAL DEGENERATIONS” (priority 2022, published 2023)", "assay_type_in_all_cases": "in vivo, mouse", "key": {"rod nuclei": {"system": "rod nuclei", "test": "Number of heterochromatin foci in rod nuclei, rd10 mice", "conditions": "rd10 + GSK, PN24"}, "rd10 mice [1]": {"system": "rd10 mice", "test": "Rod photoreceptor preservation in rd10 mice (photoreceptor rows in ONL, immunofluorescence)", "protocol": "All inhibitors were diluted in 0.9% bacteriostatic sodium chloride (saline).\nRetinas were fixed in 4% paraformaldehyde overnight at 4° C., washed in PBS, incubated in 5% sucrose/PBS for 30 min and then cryopreserved in 20% sucrose/PBS overnight at 4° C. Retinas were embedded in 2:1 mix of 20% sucrose and OCT (Sakura Finetek Torrance, CA) and stored at −80° C. Blocks with tissue samples were sectioned to 7-10 μm on a Cryostat Microtome HM550 (Thermo Fisher Scientific) and stored at −20° C. Antigen retrieval was performed by incubating the slides in 10 mM sodium citrate pH 6 for 30 min at 80° C. Double labeling immunohistochemistry was performed using fluorescent Alexa Fluor-conjugated secondary antibodies diluted 1:800 (Invitrogen, Carlsbad, California). Primary antibodies were diluted as follow: anti-H3K4me2 1:600, anti-H3K9me2 1:600, anti-RHO 1:50, anti-OPN1SW 1:400, anti-GFAP 1:1000, anti-IBA1 1:450 (AifI gene). […] The acquisition parameters were maintained constant for each set of experiments. Fluorescence intensity was assessed using ImageJ software (Bethesda, MD)."}, "Pde6b protein": {"system": "Pde6b protein", "test": "Anti-PDE6B Western blot of retina", "conditions": "rd10 mice, GSK PN9 till PN24 vs saline", "protocol": "(§1) Both retinas from one animal were flash frozen together in liquid nitrogen and stored at −80° C. Samples for SDS-PAGE were prepared by resuspended retinas in 50 μl PBS. Laemmli sample buffer was added, samples were boiled for 10 min, resolved on Criterion TGX Precast Gel AnyKD (Bio-Rad), transferred to nitrocellulose membrane, and immunoblotted with antibodies anti-H3K9me2 or anti-H3K4me2 diluted 1:5000; anti-ACTB diluted 1:10000; anti-PDE6B (1:500). Secondary goat anti-rabbit/mouse HRP (Jackson Immuno-Research Laboratory, West Grove, PA) was diluted 1:5000. An ECL western blot detection system (Thermo Fisher Scientific) was used to visualize the bound of the primary antibody."}, "H3K4me2, H3K9me2 [2]": {"system": "H3K4me2, H3K9me2", "test": "Anti-H3K4me2 and anti-H3K9me2 Western blot of WT retina", "conditions": "WT mice treated PN9 till PN24", "protocol": "as §1"}, "GFAP, IBA1": {"system": "GFAP, IBA1", "test": "Immunofluorescence labeling of GFAP and IBA1 in retina sections", "conditions": "rd10, treated PN9 till PN24", "protocol": "Fluorescence intensity was assessed using ImageJ software (Bethesda, MD)."}, "rd10 mice retina": {"system": "rd10 mice retina", "test": "RT-PCR retinal gene expression, rd10 mice", "protocol": "(§2) Whole retinas were isolated from animals by removing the sclera and most of the retinal pigmented epithelium (RPE) layer under PBS. The right eye retinas from each animal were taken for RNA extraction, cDNA preparation and RT-PCR. Immediately after isolation, tissue was flash frozen in liquid nitrogen and stored at −80° C. Left eye retinas from each animal were subjected to fixation, cryopreservation, sectioning, and immunofluorescence staining. RNA extraction and purification followed the manufacturer's protocol from RNeasy Mini Kit and RNA shredder (Qiagen). […] Primers purchased from Integrated DNA Technologies (IDT). For quantitative real-time PCR we used 2× iQ-SYBR Green PCR supermix from Bio-Rad. Samples in triplicate were run on an iQ5 Multicolor Real Time PCR Detection System (Bio-Rad). The relative expression level for each gene was calculated by the 2-ΔΔCt method and normalized to GAPDH."}, "rd10 mice [3]": {"system": "rd10 mice", "test": "GSK2879552 in artificial tears applied to the eyes of rd10 mice, rod gene expression", "conditions": "solution in artificial tears, daily to both eyes, 5 μl", "protocol": "A solution of GSK2879552 was prepared in artificial tears and applied daily to both eyes of rd10 mice in a volume of 5 μl."}, "WT mice retina": {"system": "WT mice retina", "test": "RT-PCR retinal gene expression, WT mice", "protocol": "as §2"}, "H3K4me2, H3K9me2 [4]": {"system": "H3K4me2, H3K9me2", "test": "Chromatin immunoprecipitation (ChIP) on gene regulatory elements, WT retina", "conditions": "WT mice, GSK PN9 till PN24", "protocol": "Lysate preparation for ChIP was carried out. In brief, 10 mouse retinas were rapidly isolated and rinsed in PBS on ice. Cell suspensions in PBS were crosslinked with 1% formaldehyde for 15 min at room temperature, followed by quenching with 1 M glycine, incubation on ice for 5 min, and centrifugation for 7 min at 4,000 rpm at 4° C. Pellets were resuspended in 500 μl L-CHIP buffer (1% SDS, 10 mM EDTA, 50 mM Tris-HCl pH 8.0), 1 mM PMSF and PI, sonicated twice at setting 3 for 10 sec on Sonic Dismembrator (Fisher Scientific, Model 100). Protein concentrations were adjusted to 1 mg/ml with L-CHIP buffer. ChIP was performed and subjected to quantitative PCR, primers for genomic regions are specified in Table 2."}, "rd10 mice [5]": {"system": "rd10 mice", "test": "Visual function by OptoMotry optomotor reflex", "conditions": "GSK ESD", "protocol": "A Cerebral Mechanics OptoMotry system (CerebralMechanics Inc.) was used to evaluate visual function in control and GSK ESD rd10 mice. Spatial frequency (SF) threshold and contrast sensitivity (CS) were assessed using a video camera to monitor optomotor reflex. CS was assessed at a SF of 0.092 cycles/degree. SF was assessed at 100% contrast. The CS and SF thresholds were identified as the highest values that elicited the reflexive head movement. […] CS were measured three times on PN33-35, when control mice were blind."}, "[6]": {"conditions": "GSK PN9 till PN24, compared with WT"}, "[7]": {"conditions": "treated PN9 till PN24 vs saline"}}, "data": [{"smiles": "O=C(O)c1ccc(CN2CCC(CN[C@@H]3C[C@H]3c3ccccc3)CC2)cc1", "note": "[GSK, GSK2879552]", "values": [{"measurement": "rod nuclei with three foci", "setting": "rod nuclei; untreated rd10 3%", "value": 20, "unit": "%"}, {"measurement": "rod nuclei with two foci", "setting": "rod nuclei; untreated rd10 26%", "value": 45, "unit": "%"}, {"measurement": "rod nuclei with one focus", "setting": "rod nuclei; untreated rd10 72%", "value": 35, "unit": "%"}, {"measurement": "rows of photoreceptors remaining in the ONL", "setting": "rd10 mice [1]; GSK 1.5 mg/kg i.p. daily, data not shown", "value": "5-6 rows"}, {"measurement": "RHO protein staining", "setting": "rd10 mice [1]; GSK 4.2 mg/kg PN9 till PN24, vs saline", "value": "increased"}, {"measurement": "photoreceptor survival with dosing each second day", "setting": "rd10 mice [1]; GSK 4.2 mg/kg each second day (ESD), PN9 till PN24", "value": "survived to essentially the same extent as with treatment each day"}, {"measurement": "rows of photoreceptors preserved in the ONL at PN24", "setting": "rd10 mice [1]; GSK 4.2 mg/kg i.p. daily PN9 till PN24", "value": "more than 10 rows"}, {"measurement": "rod degeneration at end of short treatment", "setting": "rd10 mice [1]; GSK from PN9 to PN17, examined at PN17", "value": "minimal degeneration"}, {"measurement": "rod degeneration one week after ending treatment", "setting": "rd10 mice [1]; GSK from PN9 to PN17, examined at PN24", "value": "substantial loss of photoreceptors"}, {"measurement": "rod degeneration 21 days after ending treatment", "setting": "rd10 mice [1]; GSK from PN9 to PN24, examined at PN45", "value": "substantial loss of cells"}, {"measurement": "rod degeneration, late start of treatment", "setting": "rd10 mice [1]; GSK from PN15 to PN24, assayed at PN24", "value": "blocked further degeneration"}, {"measurement": "Pde6b protein in retina", "setting": "Pde6b protein", "value": "three-fold increase"}, {"measurement": "global levels of H3K4me2", "setting": "H3K4me2, H3K9me2 [2]", "value": "did not change significantly"}, {"measurement": "global levels of H3K9me2", "setting": "H3K4me2, H3K9me2 [2]", "value": "No changes"}, {"measurement": "Gfap gene expression and GFAP protein labeling (gliosis)", "setting": "GFAP, IBA1", "value": "reductions in Muller cell activation"}, {"measurement": "IBA1 labeling (microglia)", "setting": "GFAP, IBA1; levels remained above WT", "value": "decreased"}, {"measurement": "expression of cone genes except S-opsin", "setting": "rd10 mice retina; GSK ESD PN9 till PN24", "value": "increased to WT levels"}, {"measurement": "expression of Rho, Prph2, Nr2e3, Nrl, and Pde6b", "setting": "rd10 mice retina; [6]", "value": "increased dramatically and reached WT level"}, {"measurement": "expression of Sag, Rom1, Crx, Cnga1 and Cngb1", "setting": "rd10 mice retina; [6]", "value": "increased, but not to the WT level"}, {"measurement": "RNA levels of H2-Aa, C1qa, Aif1 and Cx3cr1", "setting": "rd10 mice retina; GSK PN9 till PN24 vs saline", "value": "reduced"}, {"measurement": "expression of cone markers", "setting": "rd10 mice retina; GSK daily, PN24, rd10 slightly lower than WT", "value": "did not change it"}, {"measurement": "gene expression of INL cell types", "setting": "rd10 mice retina; GSK from PN30 till PN40, assayed PN40", "value": "did not change"}, {"measurement": "expression of Rgr and Hes5", "setting": "rd10 mice retina; GSK treatment of rd10 mice", "value": "increase"}, {"measurement": "expression of rod photoreceptor genes relative to GAPDH", "setting": "rd10 mice retina; treated PN9 till PN24, assayed PN24, vs saline", "value": "increased expression of almost all rod genes"}, {"measurement": "expression of most other retina cell type markers", "setting": "rd10 mice retina; treated PN9 till PN24, except Rgr and Hes5", "value": "appeared to be decreased"}, {"measurement": "expression of Capn2 and Aifm1", "setting": "rd10 mice retina; [7]", "value": "somewhat decreased"}, {"measurement": "expression of apoptotic specific genes Bcl2, Apaf1, and Casp9", "setting": "rd10 mice retina; [7]", "value": "slightly decreased"}, {"measurement": "expression of cone genes Thrb or Gnat2", "setting": "rd10 mice retina; [7]", "value": "slightly up-regulated"}, {"measurement": "rod specific gene expression after topical application", "setting": "rd10 mice [3]", "value": "Several rod specific genes were upregulated"}, {"measurement": "expression of rod photoreceptor genes", "setting": "WT mice retina; WT mice treated PN9 till PN24", "value": "no changes"}, {"measurement": "expression of transcription factors of retina development and maturation", "setting": "WT mice retina; WT retinas, treated PN9 till PN24", "value": "slightly increased expression"}, {"measurement": "H3K4me2 at promoters/regulatory elements (Ccnd1, Sox2, Hes1, Rho, Pde6b)", "setting": "H3K4me2, H3K9me2 [4]", "value": "increase in the methylation of H3K4"}, {"measurement": "H3K9me2 at regulatory elements of progenitor TF and rod specific genes", "setting": "H3K4me2, H3K9me2 [4]", "value": "losing this inhibitory mark"}, {"measurement": "contrast sensitivity preserved relative to WT", "setting": "rd10 mice [5]; 0.092 c/d, PN33-35", "value": "approximately 50%"}, {"measurement": "spatial frequency threshold (acuity)", "setting": "rd10 mice [5]; 100% contrast, PN24-PN32 averaged, untreated around 0.085, WT maximum 0.4", "value": "around 0.240 cyc/deg"}, {"measurement": "contrast sensitivity", "setting": "rd10 mice [5]; at 0.092 c/d spatial frequency, PN33-35, WT maximum 95%", "value": "43.4+/−14.6%"}, {"measurement": "vision preserved relative to WT acuity", "setting": "rd10 mice [5]; rd10 mice", "value": "around 60%"}, {"measurement": "acuity over time PN24 to PN32", "setting": "rd10 mice [5]; data not shown", "value": "slowly increased"}]}]}
